The molecules below were run against human APJ receptor (Homo sapiens (Human), UniProt P35414) (assay: [35S]GTPγS binding assay on membranes from CHO cells stably expressing human APJ receptor). Details: [35S]GTPγS SPA, read-out: Activity hAPJ SPA EC50 IP.
Assay type: biochemical
Method in brief: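 Agonist-stimulated [35S]GTPγS binding measured on membranes of a stable human APJ CHO line, 90 min at room temperature, with GDP, MgCl2 and NaCl levels optimized beforehand. Means of independent runs fitted by non-linear regression to give EC50.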

human APJ receptor, sequence (P35414 whole entry): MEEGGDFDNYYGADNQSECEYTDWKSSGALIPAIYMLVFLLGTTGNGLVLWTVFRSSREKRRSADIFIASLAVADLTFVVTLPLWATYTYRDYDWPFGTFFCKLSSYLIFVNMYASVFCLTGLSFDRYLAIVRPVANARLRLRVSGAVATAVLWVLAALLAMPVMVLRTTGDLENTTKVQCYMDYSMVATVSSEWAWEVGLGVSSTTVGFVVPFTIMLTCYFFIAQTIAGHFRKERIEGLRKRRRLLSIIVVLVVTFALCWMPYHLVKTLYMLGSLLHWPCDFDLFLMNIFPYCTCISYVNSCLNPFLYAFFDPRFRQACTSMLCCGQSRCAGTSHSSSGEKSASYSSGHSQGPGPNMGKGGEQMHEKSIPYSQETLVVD

Row | Compound | EC50 [nM]
1 | COc1ncnc(OC)c1-n1c(NS(=O)(=O)[C@@H](C)[C@@H](OC(C)C)c2ncc(Cl)cn2)nnc1C1CCC1 [Example 89.0, (1S,2S)-1-(5-chloro-2-pyrimidinyl)-N-(5-cyclobutyl-4-(4,6-dimethoxy-5-pyrimidinyl)-4H-1,2,4-triazol-3-yl)-1-(2-propanyloxy)-2-propanesulfonamide] | 0.74
2 | COc1ncnc(OC)c1-n1c(NS(=O)(=O)[C@@H](C)[C@H](OC)c2ncc(C)cn2)nnc1C1CCC1 [Example 90.0, (1R,2S)-N-(5-cyclobutyl-4-(4,6-dimethoxypyrimidin-5-yl)-4H-1,2,4-triazol-3-yl)-1-methoxy-1-(5-methylpyrimidin-2-yl)propane-2-sulfonamide] | 9.2
3 | COc1cccc(OC)c1-n1c(NS(=O)(=O)[C@@H](C)[C@H](OC)c2ncc(Cl)cn2)nnc1C1CCC1 [Example 93.0, (1R,2S)-1-(5-chloropyrimidin-2-yl)-N-(5-cyclobutyl-4-(2,6-dimethoxyphenyl)-4H-1,2,4-triazol-3-yl)-1-methoxypropane-2-sulfonamide] | 0.91
4 | CO[C@H](c1ncc(Cl)cn1)[C@H](C)S(=O)(=O)Nc1nnc(C2CCC2)n1-c1c(F)cccc1F [Example 94.0, (1R,2S)-1-(5-chloropyrimidin-2-yl)-N-(5-cyclobutyl-4-(2,6-difluorophenyl)-4H-1,24-triazol-3-yl)-1-methoxypropane-2-sulfonamide] | 0.72
5 | COCC(COC)n1c(NS(=O)(=O)[C@@H](C)[C@H](OC)c2ncc(Cl)cn2)nnc1C1CCC1 [Example 95.0, (1R,2S)-1-(5-chloropyrimidin-2-yl)-N-(5-cyclobutyl-4-(1,3-dimethoxypropan-2-yl)-4H-1,2,4-triazol-3-yl)-1-methoxypropane-2-sulfonamide] | 43
6 | COCC1(n2c(NS(=O)(=O)[C@@H](C)[C@H](OC)c3ncc(Cl)cn3)nnc2C2CCC2)CC1 [Example 96.0] | 30
7 | CO[C@H](c1ncc(Cl)cn1)[C@H](C)S(=O)(=O)Nc1nnc(C2CCC2)n1C1CCOCC1 [Example 97.0, (1R,2S)-1-(5-chloropyrimidin-2-yl)-N-(5-cyclobutyl-4-(tetrahydro-2H-pyran-4-yl)-4H-1,2,4-triazol-3-yl)-1-methoxypropane-2-sulfonamide] | 370
8 | C=C1CC(c2nnc(NS(=O)(=O)[C@@H](C)[C@H](OC)c3ncc(Cl)cn3)n2-c2c(OC)ncnc2OC)C1 [Example 118.0] | 1
9 | COc1cccc(OC)c1-n1c(NS(=O)(=O)[C@@H](C)[C@H](OC)c2ncc(Cl)cn2)nnc1C1CC(C)(C)C1 [Example 119.0] | 0.79
10 | COc1ncnc(OC)c1-n1c(NS(=O)(=O)[C@@H](C)[C@H](OC)c2ncc(Cl)cn2)nnc1C1CC(C)(C)C1 [Example 120.0] | 3.1
11 | COc1cccc(OC)c1-n1c(NS(=O)(=O)[C@@H](C)[C@H](C)c2ncc(Cl)cn2)nnc1C1(c2ccccn2)CC1 [Example 125.0] | 400
12 | COc1cccc(OC)c1-n1c(NS(=O)(=O)[C@@H](C)[C@H](C)c2ncc(C)cn2)nnc1C1(c2ccccn2)CC1 [Example 126.0] | 4200
13 | CO[C@H](c1ncc(Cl)cn1)[C@H](C)S(=O)(=O)Nc1nnc(C2CCC2)n1C(C)C [Example 128.0] | 330
14 | COc1cccc(OC)c1-n1c(NS(=O)(=O)[C@@H](C)[C@H](OC)c2cnc(C)cn2)nnc1C1CCC1 [Example 138.0] | 27
15 | COc1cccc(OC)c1-n1c(NS(=O)(=O)[C@@H](C)[C@H](C)c2cnc(C)cn2)nnc1C1CCC1 [Example 139.0] | 29
16 | COc1cccc(OC)c1-n1c(NS(=O)(=O)[C@@H](C)[C@@H](OC(C)C)c2cnc(C)cn2)nnc1C1CCC1 [Example 140.0] | 31
17 | COc1cccc(OC)c1-n1c(NS(=O)(=O)[C@@H](C)[C@H](OC)c2ncc(C)cn2)nnc1C1CCC1 [Example 141.0] | 33
18 | COc1cccc(OC)c1-n1c(NS(=O)(=O)[C@@H](C)[C@@H](OC(C)C)c2ncc(C)cn2)nnc1C1CCC1 [Example 142.0] | 5.1

Row | Compound | EC50 [nM]
19 | COc1cccc(OC)c1-n1c(NS(=O)(=O)[C@@H](C)[C@H](C)c2ncc(Cl)cn2)nnc1C1CCC1 [Example 143.0] | 4.1
20 | COc1cccc(OC)c1-n1c(NS(=O)(=O)[C@@H](C)[C@H](OC)c2ncc(Cl)cn2)nnc1C1CC(F)(F)C1 [Example 147.0] | 6.4
21 | COc1cccc(OC)c1-n1c(NS(=O)(=O)[C@@H](C)[C@H](OC)c2ncc(Cl)cn2)nnc1[C@H]1C[C@H](C)C1 [Example 148.0, (1R,2S)-1-(5-chloropyrimidin-2-yl)-N-(4-(2,6-dimethoxyphenyl)-5-((1r,3S)-3-methylcyclobutyl)-4H-1,2,4-triazol-3-yl)-1-methoxypropane-2-sulfonamide and (1R,2S)-1-(5-chloropyrimidin-2-yl)-N-(4-(2,6-dimethoxyphenyl)-5-((1r,3R)-3-methylcyclobutyl)-4H-1,2,4-triazol-3-yl)-1-methoxypropane-2-sulfonamide] | 1.1
22 | COc1ncnc(OC)c1-n1c(NS(=O)(=O)[C@@H](C)[C@H](OC)c2ncc(Cl)cn2)nnc1C1CC2(CC2)C1 [Example 183.0, (1R,2S)-1-(5-chloro-2-pyrimidinyl)-N-(4-(4,6-dimethoxy-5-pyrimidinyl)-5-(spiro[2.3]hexan-5-yl)-4H-1,2,4-triazol-3-yl)-1-methoxy-2-propanesulfonamide] | 1.4
23 | COc1ncnc(OC)c1-n1c(NS(=O)(=O)[C@@H](C)[C@H](OC)c2ncc(Cl)cn2)nnc1C1CC2(CCC2)C1 [Example 184.0, (1R,2S)-1-(5-chloro-2-pyrimidinyl)-N-(4-(4,6-dimethoxy-5-pyrimidinyl)-5-(spiro[3.3]heptan-2-yl)-4H-1,2,4-triazol-3-yl)-1-methoxy-2-propanesulfonamide] | 1.1
24 | COc1ncnc(OC)c1-n1c(NS(=O)(=O)[C@@H](C)[C@H](OC)c2ncc(Cl)cn2)nnc1[C@H]1C[C@H](C)C1 [Example 185.0, (1R,2S)-1-(5-chloro-2-pyrimidinyl)-N-(4-(4,6-dimethoxy-5-pyrimidinyl)-5-(trans-3-methylcyclobutyl)-4H-1,2,4-triazol-3-yl)-1-methoxy-2-propanesulfonamide] | 2.7
25 | COc1ncnc(OC)c1-n1c(NS(=O)(=O)[C@@H](C)[C@H](OC)c2ncc(Cl)cn2)nnc1[C@H]1C[C@@H](C)C1 [Example 186.0, (1R,2S)-1-(5-chloro-2-pyrimidinyl)-N-(4-(4,6-dimethoxy-5-pyrimidinyl)-5-(cis-3-methylcyclobutyl)-4H-1,2,4-triazol-3-yl)-1-methoxy-2-propanesulfonamide] | 0.89
26 | COc1ncnc(OC)c1-n1c(NS(=O)(=O)[C@@H](C)[C@H](OC)c2ncc(C)cn2)nnc1C1CC2(CC2)C1 [Example 200.0] | 4.6
27 | COc1ncnc(OC)c1-n1c(NS(=O)(=O)[C@@H](C)[C@H](OC)c2ncc(C)cn2)nnc1C1CC2(CC2)C1 [Example 201.0] | 11
28 | COc1ncnc(OC)c1-n1c(NS(=O)(=O)[C@@H](C)[C@H](C)c2ncc(C)cn2)nnc1C1CC2(CC2)C1 [Example 202.0] | 4.2
29 | COc1ncnc(OC)c1-n1c(NS(=O)(=O)[C@@H](C)[C@H](OC)c2ncc(Cl)cn2)nnc1C1CC(Cl)(Cl)C1 [Example 203.0, (1R,2S)-1-(5-chloropyrimidin-2-yl)-N-(5-(3,3-dichlorocyclobutyl)-4-(4,6-dimethoxypyrimidin-5-yl)-4H-1,2,4-triazol-3-yl)-1-methoxypropane-2-sulfonamide] | 10
30 | COc1cccc(OC)c1-n1c(NS(=O)(=O)[C@@H](C)[C@H](OCC(F)F)c2ncc(C)cn2)nnc1C1CCC1 [Example 209.0] | 18
31 | COc1cccc(OC)c1-n1c(NS(=O)(=O)CCc2ncc(Cl)cn2)nnc1C1CCC1 [Example 210.0, 2-(5-chloro-2-pyrimidin-yl)-N-(5-cyclobutyl-4-(2,6-dimethoxyphenyl)-4H-1,2,4-triazol-3-yl)ethanesulfonamide] | 15
32 | CC(C)O[C@@H](c1ncc(Cl)cn1)[C@H](C)S(=O)(=O)Nc1nnc(C2CCC2)n1C1CCOCC1 [Example 211.0, (1S,2S)-1-(5-chloro-2-pyrimidinyl)-N-(5-cyclobutyl-4-(tetrahydro-2H-pyran-4-yl)-4H-1,2,4-triazol-3-yl)-1-(2-propanyloxy)-2-propanesulfonamide] | 420
33 | COc1cccc(OC)c1-n1c(NS(=O)(=O)[C@@H](C)[C@H](OC)c2ncc(Cl)cn2)nnc1C12CC(C1)C2 [Example 217.0] | 7.4
34 | COc1cccc(OC)c1-n1c(NS(=O)(=O)[C@@H](C)[C@@H](OC(C)C)c2ncc(C)cn2)nnc1[C@H]1C2CC1[C@@H]2O [Example 228.0, (1S,2S)-N-(4-(2,6-dimethoxyphenyl)-5-(cis-4-hydroxybicyclo[1.1.1]pentan-2-yl)-4H-1,2,4-triazol-3-yl)-1-isopropoxy-1-(5-methylpyrimidin-2-yl)propane-2-sulfonamide and (1S,2S)-N-(4-(2,6-dimethoxyphenyl)-5-(trans-4-hydroxybicyclo[1.1.1]pentan-2-yl)-4H-1,2,4-triazol-3-yl)-1-isopropoxy-1-(5-methylpyrimidin-2-yl)propane-2-sulfonamide] | 190
35 | COc1cccc(OC)c1-n1c(NS(=O)(=O)[C@@H](C)[C@H](OC)c2ncc(Cl)cn2)nnc1C1CC2(CCC2)C1 [Example 236.0, (1R,2S)-1-(5-chloro-2-pyrimidinyl)-N-(4-(2,6-dimethoxyphenyl)-5-(spiro[3.3]heptan-2-yl)-4H-1,2,4-triazol-3-yl)-1-methoxy-2-propanesulfonamide] | 0.99
36 | COc1ncnc(OC)c1-n1c(NS(=O)(=O)[C@@H](C)[C@H](OC)c2ncc(Cl)cn2)nnc1C1CC(OC)(OC)C1 [Example 238.0, (1R,25)-1-(5-chloro-2-pyrimidinyl)-N-(5-(3,3-dimethoxycyclobutyl)-4-(4,6-dimethoxy-5-pyrimidinyl)-4H-1,2,4-triazol-3-yl)-1-methoxy-2-propanesulfonamide] | 120

— patent US11020395B2, “Cycloalkyl substituted triazole compounds as agonists of the APJ receptor” (AMGEN INC., priority 2016, dated 2021)
